Data: patent US20070010428A1, “Inhibitors of signal transduction and activator of transcription 3” (priority 2004, published 2007)
Like-named read-outs stand apart in the source and are kept apart here. Where a SMILES comes first, the peptide text is derived from it. [ ]: non-standard residue; d: D form. pY = N[C@@H](Cc1ccc(OP(=O)(O)O)cc1)C(=O)O; mts = not defined here

What was measured:
full length Stat3 = molecular target: T1, full length Stat3 (Homo sapiens, UniProt P40763); experiment: Fluorescence polarization assay, competition with FP probe for full length Stat3; format: binding
T1 construct: Aliquots of 50 μl of 80 nM full length Stat^3a and 20 nM of probe
T1 sequence (P40763 whole entry, species assumed): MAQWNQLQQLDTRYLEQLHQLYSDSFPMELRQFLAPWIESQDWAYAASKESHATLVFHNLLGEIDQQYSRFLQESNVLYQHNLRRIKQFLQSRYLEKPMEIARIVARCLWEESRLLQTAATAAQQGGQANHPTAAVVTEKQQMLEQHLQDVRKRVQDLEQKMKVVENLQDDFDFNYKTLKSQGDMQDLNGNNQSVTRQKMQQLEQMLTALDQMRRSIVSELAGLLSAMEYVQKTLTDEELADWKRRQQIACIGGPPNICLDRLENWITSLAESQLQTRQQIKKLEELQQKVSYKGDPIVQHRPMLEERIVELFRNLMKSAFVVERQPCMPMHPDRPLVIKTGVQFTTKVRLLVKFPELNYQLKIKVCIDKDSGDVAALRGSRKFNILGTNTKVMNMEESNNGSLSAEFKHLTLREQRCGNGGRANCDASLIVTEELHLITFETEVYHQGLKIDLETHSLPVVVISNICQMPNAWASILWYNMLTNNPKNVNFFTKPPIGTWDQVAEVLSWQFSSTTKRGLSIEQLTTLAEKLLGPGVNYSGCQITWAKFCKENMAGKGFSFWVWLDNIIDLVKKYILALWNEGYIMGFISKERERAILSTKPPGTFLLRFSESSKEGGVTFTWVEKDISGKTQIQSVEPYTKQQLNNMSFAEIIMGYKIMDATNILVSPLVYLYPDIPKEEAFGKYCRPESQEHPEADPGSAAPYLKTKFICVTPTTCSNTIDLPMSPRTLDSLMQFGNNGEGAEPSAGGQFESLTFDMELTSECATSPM
Protocol: FIG. 5 is FP curves of Stat3. Left panel, Titration of full length Stat3 into 10 nM solutions of FP probe. Each protein concentration was run in duplicate and the mean ±½ the difference between the high and low value was plotted. […] Each peptide concentration was run in duplicate and the mean ±½ the difference between the high and low value was plotted. A Perkin Elmer (formerly Packard) 204DT Multiprobe liquid handling robot was used to prepare serial dilutions of the inhibitors and to add these solutions to Stat3-probe solutions. The dilutions and additions were done in 96-well plates and FP was read on a Tecan Polarian plate reader. […]
Fluorescence polarization (FP) is a rapid and easy method for the measurement of peptide-protein interactions, drug-protein interactions, and drug-oligonucleotide interactions, and is readily adaptable to high throughput formats (reviewed in Nasir & Joley, 1999; Owicki, 2000). FP involves exciting a fluorophore with polarized light and taking the ratio of fluorescence at right angles after a brief period of time. […]
Aliquots of 50 μl of 80 nM full length Stat^3a and 20 nM of probe in 50 mM NaCl, 10 mM Hepes, 1 mM Na4EDTA, 2 mM DTT, and 1% NP-40 were placed in wells of a 96 well black, opaque, non-stick microtiter plate. […] Fluorescence polarization was then read in a Tecan Polarian plate reader. […]

Stat3 [1] = molecular target: T2, Stat3 (Homo sapiens, UniProt P40763); details: cited from earlier work
T2 sequence (P40763 whole entry, species assumed): as above

Stat3 [2] = molecular target: T2, Stat3; experiment: EMSA of inhibition of Stat3 dimerization and DNA binding by phosphopeptides; format: biochemical; details: averages of two determinations
Protocol: To find a lead compound for inhibitor development, a series of phospho-hexapeptides derived from known receptor docking sites for Stat3 were synthesized and assayed for their ability to inhibit Stat3 dimerization and DNA binding using electrophoretic mobility shift assays (EMSA) (Ren et al., 2003). […] SAR experiments were conducted systematically replacing each amino acid. The goal was to find non-peptidic groups that would be stable to phosphatases and proteases, and that would be more hydrophobic to allow greater bioavailability. […] The small peptidomimetics were assayed for their ability to bind to the SH2 domain of Stat3 using fluoresence polarization.
(§1) Nuclear extract was extracted as previously described (Andrews and Faller, 1991). Equal amount of nuclear extract protein was then incubated with ^32P labeled high-affinity c-sis-inducible element (hSIE; 5′-[…]-3′ , SEQ ID NO:25) (Santa Cruz). The reactions were performed in a total volume of 24 μl in buffer consisting of 10 mM HEPES (pH 7.8), 50 mM KCl, 1 mM EDTA, 5 mM MgCl2, 10% glycerol, 5 mM dithiothreitol, 1 mg of bovine serum albumin per ml, 0.5 mM phenyl-methylsulfonylflouride, and 1 mM Na3VO4 with 1 μg of poly (dI-dC) and 0.3 ng of ^32P-labeled hSIE. […] The screen was then scanned and the bands showing Stat3-DNA binding were quantified using the Storm System (Molecular Dynamics).

[3] = test system: Stat3-responsive α2-macroglobulin promoter; experiment: IL-6 stimulated luciferase reporter under α2-macroglobulin promoter in HEPG2 cells; format: cell-based; details: for inhibition of luciferase activity, initial screen: IL-6
Protocol: Liver hepatoma cells, HEPG2, when stimulated with IL-6, respond by increased phosphorylation of Stat3, which translocates to the nucleus and initiates transcription of acute response phase genes, such as a2-macroglobulin. HEPG2 cells were transfected with luciferase gene construct containing the α2-macroglobulin promoter. Cells were treated with peptides 21, 24, and 25 for 1 hr before stimulation with IL-6. Four hours later cells were lysed and luciferase activity was assayed (FIG. 9). […] Phosphopeptide 24 reduced induction to 60-70% of that of IL-6 at 50 and 100 μM.
(§2) Cell culture and transient transfection. HepG2 cells were grown in DMEM containing 10% fetal bovine serum. Cells were plated at a density of 3×10^5 per 6cm dish. Next day, plasmids were transfected with a plasmid comprised of firefly luciferase under the α2-macroglobulin promoter (Ren & Schaefer, 2002) at a ratio of 1 μg DNA to 3 μl Fugene-6 reagent according to the protocol supplied by Roche. After 48 hours, cells were treated with different peptides in serum free media for 1 hour, and then stimulated with […] IL-6. Cells were harvested at the time indicated.
(§3) Luciferase assay. Luciferase assay reagents were purchased from Promega and the assays performed according to the manufacturer's protocol. In brief, cells were washed twice with ice-cold PBS and then collected. After centrifugation at 4,500 rpm for 1 minute, cells were lysed in 1× lysis buffer (Promega) at room temperature for 30 minutes. The lysate was cleared by centrifugation at 13,000 rpm for 10 minutes. Then 50 μl of luciferase substrate was added to 10 μl of supernatant and the luciferase value was read by luminometer (Pharmingen). Each transfection was normalized to concomitant β-galactosidase expression from a control transfected plasmid pYN3214-lacZ.

[4] = test system: Stat3-responsive α2-macroglobulin promoter; experiment: IL-6 stimulated luciferase reporter in Hep3B cells; format: cell-based; details: FIG. 10
Protocol: Peptidomimetic 23 was tested for the ability to inhibit luciferase induction in a second hepatoma cell line: Hep3B. Identical procedures as for the HEPG2 experiments above were used in this cell line.
as §2
as §3, with “Each transfection was normalized to concomitant β-galactosidase expression from a control transfected plasmid pYN3214-lacZ.” left out

Stat3 [5] = molecular target: T2, Stat3; experiment: Stat3 nuclear translocation, EMSA of nuclear extracts of IL-6 stimulated HepG2 cells; format: cell-based; details: HepG2, 100 μM for 1 hr, IL-6 15 min
Protocol: FIG. 11 is an image of a gel showing EMSA of nuclear extracts of HEPG2 cells inhibited with peptides. Shown are gels from two independent experiments. Lane 1, control: no IL-6 or inhibitor. Lane 2-6 are all stimulated with IL-6, 6 ng/mL. Lane 2, no inhibitor, Lane 3 phosphopeptide 24, Lane 4, control peptide 25, Lane 5, F2PmCinn peptide 21, Lane 6, prodrug 23.
HepG2 cells were treated with 100 μM peptide for 1 hr. Cells were stimulated with IL-6 and 15 min later cells were lysed and nuclear extracts were obtained.
as §1, with “hSIE. Following incubation for 15 min at room temperature, the reactions were electrophoresed on 4% native polyacrylamide gets.” for “hSIE.”

SH2 domain of Stat3 = experiment: IC50 FP (nM)
Protocol: Table printed on a drawing sheet, FIGURE 14a
Head of the field: IC50 FP (nM)
First copying reader's note: The column headed 'Structure' holds only drawn chemical structures (left empty here); the written peptidomimetic sequence stands in an unheaded column to its left.
Where the first naming reader finds the target: passage: The small peptidomimetics were assayed for their ability to bind to the SH2 domain of Stat3 using fluoresence polarization.

CC(=O)NC(Cc1ccc(OP(=O)(O)O)cc1)C(=O)NC1CCc2cccc3c2N(C1=O)C(C(=O)NC(CCC(N)=O)C(=O)NC(C(N)=O)C(C)O)C3 (stereo not drawn) [Compound 10, Ac-pTyr-Haic-Gln-Thr-NH2]
IC50 (full length Stat3; 10 nM probe and 40 nM Stat3 final, read-out: IC50 (fluorescence polarization)): 100 to 200 nM

NC(=O)CCC(NC(=O)C1CCC2CCC(NC(=O)C=Cc3ccc(OP(=O)(O)O)cc3)C(=O)N21)C(=O)NCc1ccccc1 (stereo not drawn) [FIG. 15 compound]
IC50 (full length Stat3; assay not named, presumably fluorescence polarization, read-out: IC50 of the FIG. 15 compound): 400 nM

CC(C)C[C@H](NC(=O)[C@H](Cc1ccc(OP(=O)(O)O)cc1)NC(=O)c1ccc(C#N)cc1)C(=O)O [ISS 610]
concentration required for activity in luciferase reporter and cell growth assays (Stat3 [1]; cell culture models, Turkson et al. (2004)): 1 mM

CC(=O)N[C@@H](Cc1ccc(OP(=O)(O)O)cc1)C(=O)N[C@@H](CC(C)C)C(=O)N[C@@H](CCCCN)C(=O)N[C@H](C(=O)N[C@@H](CCCCN)C(=O)N[C@@H](Cc1ccccc1)C(N)=O)[C@@H](C)O [Peptide 2, Ac-pTyr-Leu-Lys-Thr-Lys-Phe-NH2] (Ac-[pY]LKTKF-NH2)
IC50 (Stat3 [2]): 20000 nM

Ac-Tyr-Leu-Pro-Gln-Thr-Val-mts (Ac-YLPQTV-mts; not fully specified; printed as Ac-Tyr-Leu-Pro-Gln-Thr-Val-mts; reading uncertain) [Peptide 25, non-phosphorylated control]
reduction in luciferase activity ([3]; HEPG2, 50 or 100 μM, 1 hr before IL-6, lysed 4 h later): no significant reduction in luciferase activity

Ac-pTyr-Leu-Pro-Gln-Thr-Val-mts (Ac-[pY]LPQTV-mts; reading uncertain; also: printed as Ac-pTyr-Leu-Pro-Gln-Thr-Val-mts) [Peptide 24]
luciferase induction, % of that of IL-6 ([3]; HEPG2, at 50 and 100 μM): 60-70%

F2Pm(POM)Cinn-Haic-Gln-NHBn [Compound 23]
reduction in luciferase activity [4]: dose dependant reduction in luciferase activity
inhibition of Stat3 translocation to the nucleus (Stat3 [5]): inhibited Stat3 translocation to the nucleus

F2PmCinn-Cha-Pro- Gln-NHBn [8 | PM-88D]
IC50 (SH2 domain of Stat3): 2000 nM

F2PmCinn-Leu-Pro-Gln-Thr-Val-Ala-Ala-Val-Leu-Leu-Pro-Val-Leu-Leu-Ala-Ala-Pro-NH2 [Peptide 21]
luciferase activity, % of untreated cells ([3]; HEPG2, 50 μM): 50%
luciferase activity, % of untreated cells ([3]; HEPG2, 100 μM): 25%
inhibition of Stat3 translocation to the nucleus (Stat3 [5]): inhibited Stat3 translocation to the nucleus

H-P[pY]LKTKAAVLLPVLLAAP-OH [SEQ ID NO:4]
concentration required to inhibit luciferase reporter gene expression, Stat3 nuclear translocation, and cell growth (Stat3 [1]; cell culture, Turkson et al.): 0.5 to 1 mM

H-Pro-Tyr-Leu-Lys-Thr-Lys-Phe-Ile-mts (H-PYLKTKFI-mts; not fully specified; reading uncertain) [Peptide 26, reported by Turkson et al (2001), reference compound]
inhibition of luciferase activity, initial screen ([3]; HEPG2, 100 μM): neither phosphopeptide 26 nor the unphosphorylated version, 27 (Turkson et al, 2001), showed inhibition of luciferase activity

H-Pro-pTyr-Leu-Lys-Thr-Lys-Phe-Ile-mts (H-P[pY]LKTKFI-mts; reading uncertain; also: printed as H-Pro-pTyr-Leu-Lys-Thr-Lys-Phe-Ile-mts) [Peptide 27, reported by Turkson et al (2001), reference compound]
inhibition of luciferase activity, initial screen ([3]; HEPG2, 100 μM): neither phosphopeptide 26 nor the unphosphorylated version, 27 (Turkson et al, 2001), showed inhibition of luciferase activity

pCinn-Cha-Pro-Gln- NHBn [7 | PM-66D]
IC50 (SH2 domain of Stat3): 50 nM

pCinn-Leu-Pro-Gln- Thr-NH2 [5 | PM-50D]
IC50 (SH2 domain of Stat3): 110 nM

pInd-Cha-Pro-Gln- NHBn [9 | PM-67D]
IC50 (SH2 domain of Stat3): 100 nM
